According to article PMC11990662, “Synthesis and Evaluation of the Antiproliferative Activity of the Derivatives of 3,5-Diaryl-3,4-dihydro-2H-pyrrole-2-carboxylic Acids” (Molecules, 2025):

Key:
[1] = test system: MCF-10A (non-tumorigenic epithelial cells of mammary gland); assay: MTT antiproliferative assay, MCF-10A; type: cell-based, human; details: 72 h
Procedure: (§1) Antiproliferative activity of some compounds was evaluated on cell cultures derived from MDA-MB-231 (triple negative human breast carcinoma). […] This finding allowed us to further investigate the antiproliferative activity of selected compounds on additional tumor cell lines. We studied the influence of the stereochemical orientation of the substituents at C2 and C3 in substituted 3,4-dihydro-2H-pyrrole-2-carbonitriles. The antiproliferative activity of single diastereomers of some nitriles 4 and the amide cis-6m were assessed on multiple human cancer cell lines via the MTT assay. For these experiments, the following human cell lines were used: MCF-7 (luminal type A breast carcinoma), MD-MBA-231, H1299 (non-small-cell lung carcinoma cells), A549 (lung alveolar adenocarcinoma), HeLa (cervical cancer), HepG2 (hepatocellular carcinoma), HT-29 (colorectal adenocarcinoma) and PC3 (prostate adenocarcinoma). As a model of normal tissue, we used MCF-10A (non-tumorigenic epithelial cells of mammary gland). Table 5 and Table 6 present the values of concentration that inhibits cell viability to 50% (IC50) and selectivity index (SI = IC50(MCF-10A)/IC50(tumor cell line)).
(§2) The antiproliferative activity testing was performed on cell cultures from several human cancer cell lines the MTT-dye reduction assay, described by Mosmann. Cell lines were obtained from the American Type Cultures Collection (ATCC, Manassas, VA, USA). In this article we used the following cell lines: MCF-10A (ATCC, CRL-10317™) Non-tumorigenic epithelial cells of mammary gland, MCF-7 (ATCC, HTB-22™) Luminal type A breast carcinoma, MDA-MB-231 (ATCC, HTB-26™) Triple negative breast carcinoma, H1299 (ATCC, CRL-5803™) Non-small-cell lung carcinoma, A549 (ATCC, CRM-CCL-185™) Llung alveolar adenocarcinoma, HeLa (ATCC, CCL-2™) Cervical cancer, Hep G2 (ATCC, HB-8065™) Hepatocellular carcinoma, HT-29 (ATCC, HTB-38™) Colorectal adenocarcinoma, PC-3 (ATCC, CRL-1435™) Prostate adenocarcinoma. The cells were cultured in a cell culture laboratory at the Institute of Experimental Morphology, Pathology and Anthropology with a Museum—Bulgarian Academy of Sciences. They were cultured in Dulbecco’s Modified Eagle’s medium, high glucose (DMEM 4.5 g/L glucose), supplied with 10% fetal bovine serum and antibiotics in usual concentrations in a humidified atmosphere with 5% CO2 at 37.5 °C. In the case of MCF-10A cells, epidermal growth factor, insulin and cholera toxin were added in concentrations corresponding to the cell bank instructions. Cells were plated at a density of 1 × 10^3 cells per well in a 96-well flat-bottomed microplates and allowed to adhere for 24 h before treatment with the test compounds, dissolved in DMSO, and further diluted in culture medium to the final concentrations. A concentration ranges from 5 µM to 4.1 mM was tested over an incubation period of 72 h. Cisplatin (Sigma-Aldrich) was used as a positive control in a concentration range 50 nM to 100 µM. All experiments were performed in triplicates. The MTT-formazan absorption was measured using a microplate reader (TECAN, Sunrise^TM, Groedig/Salzburg, Austria) at 570 nm. Antiproliferative activities were expressed as IC50 values (concentrations required for 50% inhibition of cell growth), calculated using non-linear regression analysis (GraphPad Prizm8 Software). The statistical analysis involved One-way ANOVA followed by Bonferroni’s post hoc test p < 0.05 was accepted as the lowest level of statistical significance.

[2] = test system: MCF-7 (luminal type A breast carcinoma); assay: MTT antiproliferative assay, MCF-7; type: cell-based, human; details: MCF-7, MTT, 72 h
Procedure: as §1, §2

[3] = test system: MDA-MB-231 (triple negative human breast carcinoma); assay: MTT antiproliferative assay, MDA-MB-231; type: cell-based; details: for IC50: MDA-MB-231, MTT, 72 h; for antiproliferative activity (in words): MDA-MB-231, preliminary experiments
Procedure: as §1, §2

[4] = test system: H1299 (non-small-cell lung carcinoma cells); assay: MTT antiproliferative assay, H1299; type: cell-based, human
Procedure: as §1, §2

[5] = test system: A549 (lung alveolar adenocarcinoma); assay: MTT antiproliferative assay, A549; type: cell-based, human; details: 72 h
Procedure: as §1, §2

[6] = test system: HeLa (cervical cancer); assay: MTT antiproliferative assay, HeLa; type: cell-based, human; details: 72 h
Procedure: as §1, §2

[7] = test system: HepG2 (hepatocellular carcinoma); assay: MTT antiproliferative assay, HepG2; type: cell-based, human; details: 72 h
Procedure: as §1, §2

[8] = test system: HT-29 (colorectal adenocarcinoma); assay: MTT antiproliferative assay, HT-29; type: cell-based, human; details: HT-29, MTT, 72 h
Procedure: as §1, §2

[9] = test system: PC3 (prostate adenocarcinoma); assay: MTT antiproliferative assay, PC3; type: cell-based, human; details: 72 h
Procedure: as §1, §2

With `N#C[C@@H]1N=C(c2ccccc2)C[C@@H]1c1cccnc1` (racemic) [cis-4h] the IC50 ([1]; Homo sapiens) was 2280 ± 178 µM, the IC50 ([2]; Homo sapiens, MCF7) was 1380 ± 255 µM and the IC50 ([3]; Homo sapiens) was greater than 4110 µM. The IC50 ([4]; Homo sapiens, NCI-H1299, 72 h) was 2980 ± 62 µM, the IC50 ([5]; Homo sapiens) was 311 ± 19 µM and the IC50 ([6]; Homo sapiens) was 2220 ± 136 µM. For the same compound, the IC50 ([7]; Homo sapiens) was 3000 ± 107 µM, the IC50 ([8]; Homo sapiens) was 1640 ± 132 µM and the IC50 ([9]; Homo sapiens) was 1920 ± 70 µM.
`COc1cc(O)c(C2=N[C@@H](C#N)[C@@H](c3ccc(C)c(Br)c3)C2)c(OC)c1` (racemic) [cis-4o] gave an IC50 ([3]; Homo sapiens) of 35.9 µM.
With `COc1cc(O)c(C2=N[C@@H](C#N)[C@H](c3ccc(C)c(Cl)c3)C2)c(OC)c1` (racemic) [trans-4n] the “antiproliferative activity (in words)” value [3] was “very poor activity”.
Compound `COc1cc(O)c(C2=N[C@@H](C(N)=O)[C@@H](c3ccc(C)c(F)c3)C2)c(OC)c1` [cis-6m] has an IC50 ([1]; Homo sapiens) of 429 ± 28 µM, an IC50 ([2]; Homo sapiens, MCF7) of 923 ± 37 µM and an IC50 ([3]; Homo sapiens) of 1990 ± 40 µM. It also gave an IC50 ([4]; Homo sapiens, NCI-H1299, 72 h) of 1880 ± 51 µM, an IC50 ([5]; Homo sapiens) of 136 ± 5.4 µM and an IC50 ([6]; Homo sapiens) of 1180 ± 37 µM. For the same compound, the IC50 ([7]; Homo sapiens) was 117 ± 6.2 µM, the IC50 ([8]; Homo sapiens) was 64.3 ± 4.8 µM and the IC50 ([9]; Homo sapiens) was 125 ± 7.6 µM.
`COc1cc(O)c(C2=N[C@@H](C#N)[C@H](c3ccc(C)c(F)c3)C2)c(OC)c1` (racemic) [trans-4m] showed an IC50 ([1]; Homo sapiens) of 79.3 ± 2.5 µM, an IC50 ([2]; Homo sapiens, MCF7) of 149 ± 12 µM and an IC50 ([3]; Homo sapiens) of 717 ± 73 µM. For the same compound, the IC50 ([4]; Homo sapiens, NCI-H1299, 72 h) was 36.4 ± 2 µM, the IC50 ([5]; Homo sapiens) was 32.2 ± 1.1 µM and the IC50 ([6]; Homo sapiens) was 1170 ± 42 µM. The IC50 ([7]; Homo sapiens) was 44.6 ± 2.8 µM, the IC50 ([8]; Homo sapiens) was 28.1 ± 2 µM and the IC50 ([9]; Homo sapiens) was 44.3 ± 5.4 µM.
For `COc1ccc(C2=N[C@@H](C#N)[C@@H](c3ccccc3)C2)cc1` (racemic) [cis-4e], the IC50 ([1]; Homo sapiens) was 427 ± 12 µM, the IC50 ([2]; Homo sapiens, MCF7) was 1770 ± 232 µM and the IC50 ([3]; Homo sapiens) was greater than 3620 µM. The IC50 ([4]; Homo sapiens, NCI-H1299, 72 h) was 840 ± 43 µM, the IC50 ([5]; Homo sapiens) was 341 ± 26 µM and the IC50 ([6]; Homo sapiens) was 158 ± 6.5 µM. The IC50 ([7]; Homo sapiens) was 554 ± 34 µM, the IC50 ([8]; Homo sapiens) was 308 ± 8 µM and the IC50 ([9]; Homo sapiens) was 478 ± 58 µM.
`Cc1ccc(C2=N[C@@H](C#N)[C@@H](c3ccccc3)C2)cc1` (racemic) [cis-4k] gave an IC50 ([1]; Homo sapiens) of 104 ± 6 µM, an IC50 ([2]; Homo sapiens, MCF7) of 374 ± 6 µM and an IC50 ([3]; Homo sapiens) of 2560 ± 107 µM. For the same compound, the IC50 ([4]; Homo sapiens, NCI-H1299, 72 h) was 205 ± 6 µM, the IC50 ([5]; Homo sapiens) was 82.2 ± 5.8 µM and the IC50 ([6]; Homo sapiens) was 169 ± 10 µM. For the same compound, the IC50 ([7]; Homo sapiens) was 235 ± 15 µM, the IC50 ([8]; Homo sapiens) was 853 ± 46 µM and the IC50 ([9]; Homo sapiens) was 297 ± 25 µM.
With `COc1cc(O)c(C2=N[C@@H](C#N)[C@H](c3ccc(C)c(Br)c3)C2)c(OC)c1` (racemic) [trans-4o] the “antiproliferative activity (in words)” value [3] was “very poor activity”.
`Cc1ccc(C2=N[C@@H](C#N)[C@H](c3ccccc3)C2)cc1` (relative stereo) [trans-4k, rel-(2R,3S)-5-(4-methylphenyl)-3-phenyl-3,4-dihydro-2H-pyrrole-2-carbonitrile] was tested, and the IC50 ([1]; Homo sapiens) was 182 ± 5.8 µM, the IC50 ([2]; Homo sapiens, MCF7) was 568 ± 57 µM and the IC50 ([3]; Homo sapiens) was 313 ± 20 µM. The IC50 ([4]; Homo sapiens, NCI-H1299, 72 h) was 354 ± 15 µM, the IC50 ([5]; Homo sapiens) was 11.7 ± 0.8 µM and the IC50 ([6]; Homo sapiens) was 84.1 ± 2.3 µM. For the same compound, the IC50 ([7]; Homo sapiens) was 159 ± 4.6 µM, the IC50 ([8]; Homo sapiens) was 136 ± 7.7 µM and the IC50 ([9]; Homo sapiens) was 121 ± 13 µM.
For `COc1cc(O)c(C2=N[C@@H](C#N)[C@H](c3ccc(C)c(F)c3)C2)c(OC)c1` (relative stereo) [cis-4m, rel-(2R,3S)-3-(3-fluoro-4-methylphenyl)-5-(2-hydroxy-4,6-dimethoxyphenyl)-3,4-dihydro-2H-pyrrole-2-carbonitrile], the IC50 [1] was 170 ± 12 µM, the IC50 [2] was 185 ± 26 µM and the IC50 [3] was 16 ± 0.7 µM. For the same compound, the IC50 ([4]; 72 h) was 25.4 ± 2.3 µM, the IC50 [5] was 97.6 ± 13 µM and the IC50 [6] was 224 ± 15 µM. The IC50 [7] was 117 ± 4.8 µM, the IC50 [8] was 19.6 ± 1.8 µM and the IC50 [9] was 115 ± 4.8 µM.
With `N.N.[Cl][Pt][Cl]` [Cisplatin, reference compound] the IC50 [1] was 23.2 ± 1.4 µM, the IC50 [2] was 45.8 ± 3.2 µM and the IC50 [3] was 1.8 ± 0.1 µM. It also gave an IC50 ([4]; 72 h) of 5 ± 0.9 µM, an IC50 [5] of 38.6 ± 4.7 µM and an IC50 [6] of 19.6 ± 3.2 µM. It also gave an IC50 [7] of 19.1 ± 0.4 µM, an IC50 [8] of 8.2 ± 0.3 µM and an IC50 [9] of 3.4 ± 0.5 µM.
`COc1cc(O)c(C2=N[C@@H](C#N)[C@@H](c3ccc(C)c(Cl)c3)C2)c(OC)c1` (racemic) [cis-4n] gave an IC50 ([3]; Homo sapiens) of 75.8 µM.
